{
  "source": "patent US20260216093A1",
  "about": "“COMPOSITIONS AND METHODS FOR ENHANCED DRUG LOADING INTO LIPID-BASED CARRIERS” (UNIVERSITY OF NOTRE DAME DU LAC, priority 2023, published 2026)",
  "key": {"[1]": {"system": "Human hepatocellular carcinoma cells (HepG2)", "assay": "CCK-8 cell proliferation assay with Exo-Dox", "assay_type": "cell-based", "details": "24 h", "protocol": "(§1) Cell viability was assessed using a Cell Counting Kit-8 (CCK-8 assay, Enzo). In brief, 3T3 and HepG2 cells were seeded into a 96-well flat culture plate (Corning). After being cultured overnight, the cells were washed with FBS-free EMEM and incubated with a specific concentration of sEV and exosomal relative in FBS-free medium at 37° C. for 12, 24, 36, or 48 h. The cells were then washed three times with sterilized PBS and incubated with fresh medium containing 10% FBS overnight. The cells were then washed with PBS, and FBS-free EMEM […] before adding assay reagent. After incubation for 20 min at 37° C., the cell proliferation and cytotoxicity were measured by absorbance at 460 nm. The background was measured by 3T3 and HepG2 cells cultured in FBS-free EMEM only.\n(§2) The ability of Exo-Dox to inhibit cancer cell proliferation in vitro was then analyzed. Human hepatocellular carcinoma cells (HepG2) and cervical carcinoma cells (Hela) were treated with Exo-Dox for 24 h, while cells without treatment, treated with control sEVs, and D-Cys-GQDs mixed with free Dox are negative controls. Cell viability of all samples was measured by CCK-8 assay. […] Dox-loaded sEVs by sonication method were not included in the cell viability tests due to low yield of loaded sEVs that was caused by the damage of physical structure of sEVs by sonication (FIG. 17A-B)."}, "[2]": {"system": "cervical carcinoma cells (Hela)", "assay": "CCK-8 cell proliferation assay with Exo-Dox", "assay_type": "cell-based, human", "details": "24 h", "protocol": "as §1, §2"}, "tau fibrils": {"biological_target": "tau fibrils (Homo sapiens, UniProt P10636)", "sequence (P10636 whole entry)": "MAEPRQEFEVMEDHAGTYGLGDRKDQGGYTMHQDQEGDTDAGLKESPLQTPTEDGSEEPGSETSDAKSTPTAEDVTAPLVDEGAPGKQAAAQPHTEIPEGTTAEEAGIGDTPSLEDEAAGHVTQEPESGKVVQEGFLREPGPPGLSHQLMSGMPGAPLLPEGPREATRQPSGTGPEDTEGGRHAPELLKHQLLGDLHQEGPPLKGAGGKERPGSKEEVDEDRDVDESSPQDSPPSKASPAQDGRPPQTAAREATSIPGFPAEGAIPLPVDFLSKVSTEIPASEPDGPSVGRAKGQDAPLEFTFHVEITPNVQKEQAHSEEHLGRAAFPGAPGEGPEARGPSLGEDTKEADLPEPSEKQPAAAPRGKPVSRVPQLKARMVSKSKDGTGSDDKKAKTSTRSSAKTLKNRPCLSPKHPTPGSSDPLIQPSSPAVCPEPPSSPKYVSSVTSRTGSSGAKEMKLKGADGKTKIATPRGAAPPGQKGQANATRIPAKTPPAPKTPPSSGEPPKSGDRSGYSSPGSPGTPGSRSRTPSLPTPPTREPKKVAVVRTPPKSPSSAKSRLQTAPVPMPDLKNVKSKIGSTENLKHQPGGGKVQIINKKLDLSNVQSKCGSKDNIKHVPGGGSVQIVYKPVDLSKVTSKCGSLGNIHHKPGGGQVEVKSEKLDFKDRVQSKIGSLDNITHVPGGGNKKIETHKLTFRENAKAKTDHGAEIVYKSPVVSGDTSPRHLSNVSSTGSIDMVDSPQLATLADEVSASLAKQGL", "assay": "Tau biosensor seeding (propagation) assay", "assay_type": "cell-based", "details": "inhibitors added 1 h after tau fibrils; D-GQDs 0.1-0.8 μM, Qal:D-GQDs 10:1, 6:1, 3:1; bare Qal 1.5 μM to 9 μM", "protocol": "To study the effect of Qal-D-GQD-Exo on tau propagation, a tau biosensor seeding assay (FIG. 35) was used to investigate whether the Qal-D-GQD-Exo could block the cellular transmission of exogeneous mature tau fibrils using three different ratios of Qal to D-GQDs (10:1, 6:1, and 3:1) and concentrations of D-GQDs at 0.8, 0.4, 0.2, and 0.1 μM."}},
  "data": [
    {"molecule": "COc1cccc2c1C(=O)c1c(O)c3c(c(O)c1C2=O)C[C@@](O)(C(=O)CO)C[C@@H]3O[C@H]1C[C@H](N)[C@H](O)[C@H](C)O1", "note": "[free Dox, Doxorubicin]", "values": [
      {"measurement": "inhibition of cell proliferation", "setting": "[1]", "result": "28.3±5.2", "unit": "%"},
      {"measurement": "inhibition of cell proliferation", "setting": "[2]", "result": "27.7±5.0", "unit": "%"}
    ]},
    {"molecule": "Qal: tau-specific N-amino peptide (NAP), amino acid sequence CGTHKLTFRASHAVQIVYKGC (SEQ ID NO: 2)", "values": [
      {"measurement": "inhibition of intracellular tau aggregation, at most", "setting": "tau fibrils", "result": "did not show any inhibitory efficiency"}
    ]}
  ]
}
